These compounds were tested on E. coli BW25113 (assay: MIC, 2-fold broth dilution, E. coli BW25113). Conditions: Escherichia coli; E. coli BW25113; asterisk in column 1-10; read-out: MIC, μM 1-10.
Format: cell-based, Escherichia coli

SMILES | MIC
C[n+]1ccc(Nc2ccc(NC(=O)c3ccc(Cc4ccc(C(=O)Nc5ccc(Nc6cc[n+](C)cc6)cc5)cc4)cc3)cc2)cc1 [Example 52, 4,4′-((((4,4′-methylenebis(benzoyl))bis(azanediyl))bis(4,1-phenylene))bis(azanediyl))bis(1-methylpyridin-1-ium)] | 1 to 10 µM
C[n+]1ccc(-c2ccc(NC(=O)c3ccc(C(=O)Nc4ccc(-c5cc[n+](C)cc5)cc4)cc3)cc2)cc1 [Example 56] | 1 to 10 µM
C[n+]1ccc(Nc2ccc(NC(=O)c3ccc(C(=O)Nc4ccc(Nc5cc[n+](C)cc5)cc4)c(F)c3)cc2)cc1 [Example 58, 4,4′-((((2-fluoroterephthaloyl)bis(azanediyl))bis(4,1-phenylene))bis(azanediyl))bis(1-methylpyridin-1-ium)] | 1 to 10 µM

Same assay, conditions: Escherichia coli; E. coli BW25113; asterisk in column 10-50; read-out: MIC, μM 10-50

SMILES | MIC
C[N+](C)(C)c1ccc(NC(=O)c2ccc(-c3ccc(C(=O)Nc4ccc([N+](C)(C)C)cc4)cc3)cc2)cc1 [Example 23, 4,4′-(([1,1′-biphenyl]-4,4′-dicarbonyl)bis(azanediyl))bis(N,N,N-trimethylbenzenaminium)] | 10 to 50 µM
Cc1cc(NC(=O)c2ccc(-c3ccc(C(=O)Nc4cc[n+](C)c(C)c4)cc3)cc2)cc[n+]1C [Example 29, 4,4′-(([1,1′-biphenyl]-4,4′-dicarbonyl)bis(azanediyl))bis(1,2-dimethylpyridin-1-ium)] | 10 to 50 µM
Cc1c[n+](C)ccc1NC(=O)c1ccc(C(=O)Nc2ccc(Nc3cc[n+](C)cc3)cc2)cc1 [Example 55, 1,3-dimethyl-4-(4-((4-((1-methylpyridin-1-ium-4-yl)amino)phenyl)carbamoyl)benzamido)pyridin-1-ium] | 10 to 50 µM
C[n+]1ccc(NC(=O)c2ccc(C(=O)Nc3ccc(Nc4cc[n+](C)cc4)cc3)cc2)cc1 [Example 62, 1-methyl-4-(4-((4-((1-methylpyridin-1-ium-4-yl)amino)phenyl)carbamoyl)benzamido)pyridin-1-ium] | 10 to 50 µM
C[n+]1ccc(NC(=O)c2ccc(C(=O)Nc3ccc(Nc4cc[n+](C)cc4)c(F)c3)cc2)cc1 [Example 66, 1-methyl-4-(4-((3-fluoro-4-((1-methylpyridin-1-ium-4-yl)amino)phenyl)carbamoyl)benzamido)pyridin-1-ium] | 10 to 50 µM

Same assay, conditions: Escherichia coli; E. coli BW25113; asterisk in column >50; read-out: MIC, μM >50

SMILES | MIC
C[n+]1ccc(Nc2ccc(NC(=O)c3ccc(-c4ccccc4)cc3)cc2)cc1 [Example 18, 4-((4-([1,1′-biphenyl]-4-ylcarboxamido)phenyl)amino)-1-methylpyridin-1-ium] | > 50 µM
O=C(Nc1ccc(Nc2ccncc2)cc1)c1ccc(C(=O)Nc2ccc(Nc3ccncc3)cc2)c(Cl)c1 [Example 19, 2-chloro-N^1,N^4-bis(4-(pyridin-4-ylamino)phenyl)terephthalamide] | > 50 µM
O=C(Nc1ccc(Nc2ccncc2)cc1)c1ccc2cc(C(=O)Nc3ccc(Nc4ccncc4)cc3)ccc2c1 [Example 21, N^2,N^6-bis(4-(pyridin-4-ylamino)phenyl)naphthalene-2,6-dicarboxamide] | > 50 µM
CN(C)c1ccc(NC(=O)c2ccc(-c3ccc(C(=O)Nc4ccc(N(C)C)cc4)cc3)cc2)cc1 [Example 22, N^4,N^4′-bis(4-(dimethylamino)phenyl)-[1,1′-biphenyl]-4,4′-dicarboxamide] | > 50 µM
O=C(Nc1ccc(Nc2ccncc2)cc1)c1ccc(C(=O)Nc2ccc(Nc3ccncc3)cc2)c([N+](=O)[O-])c1 [Example 24, 2-nitro-N^1,N^4-bis(4-(pyridin-4-ylamino)phenyl)terephthalamide] | > 50 µM
O=S(=O)(Nc1ccncc1)c1ccc(-c2ccc(S(=O)(=O)Nc3ccncc3)cc2)cc1 [Example 26, N^4,N^4′-di(pyridin-4-yl)-[1,1′-biphenyl]-4,4′-disulfonamide] | > 50 µM
Cc1cc(NC(=O)c2ccc(-c3ccc(C(=O)Nc4ccnc(C)c4)cc3)cc2)ccn1 [Example 27, N^4,N^4′-bis(2-methylpyridin-4-yl)-[1,1′-biphenyl]-4,4′-dicarboxamide] | > 50 µM
Cc1cnccc1NC(=O)c1ccc(-c2ccc(C(=O)Nc3ccncc3C)cc2)cc1 [Example 28, N^4,N^4′-bis(3-methylpyridin-4-yl)-[1,1′-biphenyl]-4,4′-dicarboxamide] | > 50 µM
COc1cc(N(C)C)ccc1NC(=O)c1ccc(-c2ccc(C(=O)Nc3ccc(N(C)C)cc3OC)cc2)cc1 [Example 31, N^4,N^4′-bis(4-(dimethylamino)-2-methoxyphenyl)-[1,1′-biphenyl]-4,4′-dicarboxamide] | > 50 µM
COc1cc([N+](C)(C)C)ccc1NC(=O)c1ccc(-c2ccc(C(=O)Nc3ccc([N+](C)(C)C)cc3OC)cc2)cc1 [Example 32] | > 50 µM
COc1cc(NC(=O)c2ccc(-c3ccc(C(=O)Nc4ccc(N(C)C)c(OC)c4)cc3)cc2)ccc1N(C)C [Example 33, N^4,N^4′-bis(4-(dimethylamino)-3-methoxyphenyl)-[1,1′-biphenyl]-4,4′-dicarboxamide] | > 50 µM
Cc1cc(NC(=O)c2ccc(-c3ccc(C(=O)Nc4ccc(N(C)C)c(C)c4)cc3)cc2)ccc1N(C)C [Example 36, N^4,N^4′-bis(4-(dimethylamino)-3-methylphenyl)-[1,1′-biphenyl]-4,4′-dicarboxamide] | > 50 µM
Cc1cc(NC(=O)c2ccc(-c3ccc(C(=O)Nc4ccc([N+](C)(C)C)c(C)c4)cc3)cc2)ccc1[N+](C)(C)C [Example 37, 4,4′-(([1,1′-biphenyl]-4,4′-dicarbonyl)bis(azanediyl))bis(N,N,N,2-tetramethylbenzenaminium)] | > 50 µM
CN(C)c1ccc(NC(=O)c2ccc(-c3ccc(C(=O)Nc4ccc(N(C)C)c(Cl)c4)cc3)cc2)cc1Cl [Example 38, N^4,N^4′-bis(3-chloro-4-(dimethylamino)phenyl)-[1,1′-biphenyl]-4,4′-dicarboxamide] | > 50 µM
Cc1cc(C(=O)Nc2ccc(N(C)C)cc2)ccc1-c1ccc(C(=O)Nc2ccc(N(C)C)cc2)cc1 [Example 40, N^4,N^4′-bis(4-(dimethylamino)phenyl)-2-methyl-[1,1′-biphenyl]-4,4′-dicarboxamide] | > 50 µM
O=C(Nc1ccc(Nc2ccncc2)cc1)c1ccc(C(=O)Nc2ccc(Nc3ccncc3)cc2)c(C(F)(F)F)c1 [Example 41, N^1,N^4-bis(4-(pyridin-4-ylamino)phenyl)-2-(trifluoromethyl)terephthalamide] | > 50 µM

SMILES | MIC
Cc1cc(C(=O)Nc2ccc([N+](C)(C)C)cc2)ccc1-c1ccc(C(=O)Nc2ccc([N+](C)(C)C)cc2)cc1 [Example 42, 4,4′-((2-methyl-[1,1′-biphenyl]-4,4′-dicarbonyl)bis(azanediyl))bis(N,N,N-trimethylbenzenaminium)] | > 50 µM
O=C(Nc1ccc(Nc2ccncc2)cc1)c1ccc(C(=O)Nc2ccc(Nc3ccncc3)cc2)c(OC(F)(F)F)c1 [Example 43, N^1,N^4-bis(4-(pyridin-4-ylamino)phenyl)-2-(trifluoromethoxy)terephthalamide] | > 50 µM
CN(C)C1CCC(NC(=O)c2ccc(-c3ccc(C(=O)NC4CCC(N(C)C)CC4)cc3)cc2)CC1 (stereo not drawn) [Example 46, N^4,N^4′-bis(4-(dimethylamino)cyclohexyl)-[1,1′-biphenyl]-4,4′-dicarboxamide] | > 50 µM
O=C(Nc1ccc(Nc2ccncc2)cc1)c1ccc(Cc2ccc(C(=O)Nc3ccc(Nc4ccncc4)cc3)cc2)cc1 [Example 48] | > 50 µM
CN(C)c1ccc(NC(=O)c2ccc(Cc3ccc(C(=O)Nc4ccc(N(C)C)cc4)cc3)cc2)cc1 [Example 49, 4,4′-methylenebis(N-(4-(dimethylamino)phenyl)benzamide)] | > 50 µM
CN1CCC(Nc2ccc(NC(=O)c3ccc(C(=O)Nc4ccc(NC5CCN(C)CC5)cc4)cc3)cc2)CC1 [Example 50, N^1,N^4-bis(4-((1-methylpiperidin-4-yl)amino)phenyl)terephthalamide] | > 50 µM
O=C(Nc1ccc(Nc2ccncc2)cc1)c1ccc(C(=O)Nc2ccc(Nc3ccncc3)cc2)c(F)c1 [Example 51, 2-fluoro-N^1,N^4-bis(4-(pyridin-4-ylamino)phenyl)terephthalamide] | > 50 µM
C[N+](C)(C)c1ccc(NC(=O)c2ccc(Cc3ccc(C(=O)Nc4ccc([N+](C)(C)C)cc4)cc3)cc2)cc1 [Example 53] | > 50 µM
O=C(Nc1ccc(-c2ccncc2)cc1)c1ccc(C(=O)Nc2ccc(-c3ccncc3)cc2)cc1 [Example 54, N^1,N^4-bis(4-(pyridin-4-yl)phenyl)terephthalamide] | > 50 µM
C[n+]1ccc(-c2ccc(NC(=O)c3ccc(-c4ccc(C(=O)Nc5ccc(-c6cc[n+](C)cc6)cc5)cc4)cc3)cc2)cc1 [Example 59, 4,4′-((([1,1′-biphenyl]-4,4′-dicarbonyl)bis(azanediyl))bis(4,1-phenylene))bis(1-methylpyridin-1-ium)] | > 50 µM
O=C(Nc1ccc(Nc2ccncc2)cc1)[C@H]1CC[C@H](C(=O)Nc2ccc(Nc3ccncc3)cc2)CC1 [Example 60, (E)-N^1,N^4-bis(4-(pyridin-4-ylamino)phenyl)cyclohexane-1,4-dicarboxamide] | > 50 µM
C[N+](C)(C)C1CCC(NC(=O)c2ccc(-c3ccc(C(=O)NC4CCC([N+](C)(C)C)CC4)cc3)cc2)CC1 (stereo not drawn) [Example 61, 4,4′-(([1,1′-biphenyl]-4,4′-dicarbonyl)bis(azanediyl))bis(N,N,N-trimethylcyclohexan-1-aminium)] | > 50 µM
COc1cc(Nc2cc[n+](C)cc2)ccc1NC(=O)c1ccc(C(=O)Nc2cc[n+](C)cc2)cc1 [Example 63, 4-(4-((2-methoxy-4-((1-methylpyridin-1-ium-4-yl)amino)phenyl)carbamoyl)benzamido)-1-methylpyridin-1-ium] | > 50 µM
Cc1cc(NC(=O)c2ccc(C(=O)Nc3ccncc3)cc2)ccc1Nc1ccncc1 [Example 64, N^1-(3-methyl-4-(pyridin-4-ylamino)phenyl)-N^4-(pyridin-4-yl)terephthalamide] | > 50 µM
Cc1cc(Nc2cc[n+](C)cc2)ccc1NC(=O)c1ccc(C(=O)Nc2cc[n+](C)cc2)cc1 [Example 67, 1-methyl-4-(4-((2-methyl-4-((1-methylpyridin-1-ium-4-yl)amino)phenyl)carbamoyl)benzamido)pyridin-1-ium] | > 50 µM

Source: patent US20240116857A1 (St. Louis University, priority 2022, published 2024)
